Here are results for one molecule from patent publication US10973794B2, “Dental composition and use” (CALSCIENCE INTERNATIONAL LTD., priority 2015, dated 2021).

The test system of experiment [1] is Sirtuin 3 (SIRT3). The experiment in a line: Taqman Real Time-PCR expression of Sirtuin 3 in HFFs with and without H2O2 stress-induced premature senescence. To be noted: following oxidant challenge, FIG. 7. It is filed as cell-based, human. As for the experimental part:
(§1) The following results relate to the analysis of senescence tests on 1,5-Dicaffeoylquinic Acid (1,5-DCQA). FIG. 8 relates to 1,4-DCQA. The experiments were conducted using human foreskin fibroblasts (HFFs).
(§2) In the following experiments, HFFs were challenged for a period of two hours with 150 μM hydrogen peroxide (H2O2), to stimulate premature senescence in the presence and absence of 1,5-DCQA (1/1000 dilution), and subsequently assayed by Taqman Real Time-PCR for the expression of key senescence associated genes.
(§3) These genes are involved in cell cycle regulation and mitochondrial stress responses. Challenge with a near lethal level of oxidant stress typically induces an increase in SIRT2 and decrease in SIRT3 expression. […] This is indicative of each having a potential for stimulating cell proliferation in the absence of oxidant challenge.
(§4) The results shown in Table 2 and FIGS. 2 to 7 were generated using the polymerase chain reaction (PCR), wherein the dCt and ddCT values are results used in statistical analysis. The abbreviation dCt relates to “delta cycle threshold” and the abbreviation ddCt relates to “delta delta cycle threshold”. In these experiments, HPRT (hypoxanthine phosphoribosyltransferase, a protein from the HPRT-1 gene) was used as a control.
A general note: In qPCR the cycle at which signal appears reflects the starting amount.

Experiment [2] has as its system p16. Briefly: Taqman Real Time-PCR expression of p16 in HFFs with and without H2O2 stress-induced premature senescence. It is filed as cell-based, human. As for the experimental part: as §1, §2, §4
The subject of experiment [3] is XRCC5. The experiment in a line: Taqman Real Time-PCR expression of XRCC5 in HFFs with and without H2O2 stress-induced premature senescence. To be noted: with and without 150 μM H2O2, FIG. 4. The class given is cell-based, human. As for the experimental part:
as §1, §2
XRCC5 is a double strand break repair protein.
as §4

For experiment [4], the system named is human foreskin fibroblasts (HFFs). Briefly: WST-1 Cell Proliferation Assay. The class given is cell-based. As for the experimental part: as §1
The WST-1 Cell Proliferation Assay provides a sensitive and accurate assay for cell proliferation and cytotoxicity (cell viability). The WST assay is based on the cleavage of the tetrazolium salt WST-1 to formazan by cellular mitochondrial dehydrogenases. Expansion in the number of viable cells results in an increase in the overall activity of the mitochondrial dehydrogenases in the sample. The augmentation in enzyme activity results in an increase in the amount of formazan dye formed. The formazan dye produced by viable cells was quantified by a multi-well spectrophotometer by measuring the absorbance of the dye solution at 440 nm. The compound provided was tested in the WST assay over a range of dilutions. […] The results of the assay show the standard deviation (SD) for 1,5-DCQA and the control, and the mean values for 1,5-DCQA and the control.

The subject of experiment [5] is Sirtuin 2 (SIRT2). The experiment in a line: Taqman Real Time-PCR expression of Sirtuin 2 in HFFs with and without H2O2 stress-induced premature senescence. To be noted: without stress, FIG. 6. It is filed as cell-based, human. As for the experimental part: as §1, §2, §3, §4

Each structure is given as a SMILES string.

On to `O=C(/C=C/c1ccc(O)c(O)c1)O[C@@H]1C[C@](OC(=O)/C=C/c2ccc(O)c(O)c2)(C(=O)O)C[C@@H](O)[C@H]1O` [1,5-DCQA, 1,5-Dicaffeoylquinic Acid], for which the “change in SIRT3 expression” value in experiment [1] is given as “increase in SIRT3 expression”. For the same molecule, the “effect on p16 expression following oxidant challenge” value in experiment [2] (150 μM H2O2, FIG. 2) was “excellent protection from oxidant challenge”. Moreover, the “effect on p16 expression in untreated cells” value in experiment [2] (no H2O2, FIG. 2) is reported as “no stress effect on untreated cells”. Besides, the “expression of XRCC5 in comparison with the control data set” value in experiment [3] was “substantially unaltered expression”. For the same molecule, the “effect on cell viability (WST assay)” value in experiment [4] (1/1000 and 2/1000 dilutions) is recorded as “beneficial to cell viability”. In addition, the “Mean (WST-1 assay, absorbance at 440 nm)” value in experiment [4] (dilution 1/1000) is listed as 0.916; in experiment [4] (dilution 2/1000) it was 0.868; in experiment [4] (dilution 3/1000) it was 0.717; in experiment [4] (dilution 4/1000), 0.363; in experiment [4] (dilution 5/1000), 0.178; in experiment [4] (dilution 6/1000), 0.300. In addition, the “Mean (WST-1 assay, absorbance at 440 nm)” value in experiment [4] (dilution 7/1000) stood at 0.419; in experiment [4] (dilution 8/1000), 0.196; in experiment [4] (dilution 9/1000), 0.115; in experiment [4] (dilution 10/1000) it was 0.069. In addition, the “change in SIRT2 expression” value in experiment [5] is “significant decrease in SIRT2 expression”.
